In patent publication US10117877B2, “Methods for fat reduction” (ALLERGAN, INC., priority 2015, dated 2018):
Entries after “also recorded” stand apart in the source; their conditions may differ.

Tests used:
[1] = body weight gain in rats on daily oral gavage for 26 weeks; type: in vivo, rats (Hsd: Sprague Dawley)
Method: In this example it is shown that the compound of Formula I when administration orally daily results in reduction in weight gain and lower mean body weights. In general males rats (n=17-20) and female rats (n=17-20) were administered orally (by gavage) daily for 6 months at the doses indicated below.
More specifically, male and female rats (Hsd: Sprague Dawley) were assigned to four groups and administered test article formulations (0.03, 0.3, or 5 mg/kg/day compound of Formula I) or vehicle control article (0 mg/mL [0%] compound of Formula I [placebo] containing 3% hydroxypropyl-β-cyclodextrin [30 mg/mL (150 mg/kg/day)] and 10 mM phosphate buffered saline) via oral gavage once daily for 26 weeks at a volume of 5 mL/kg. Animals were sacrificed at the end of the dosing phase (up to 15 animals/sex/group) or at the end of the 4-week recovery phase (5 animals/sex/group in dose groups given vehicle control article and 5 mg/kg/day the compound of Formula I). These animals were on a restricted diet due to the length of the study. Weights were measured once per week.

female C57BL/6J mice = assay: in vivo mouse hair re-growth model, topical on shaved backs; conditions: 0.03% topical in minoxidil formulation; for full hair re-growth: shaved backs of mice
Method: In general, the compound of formula I and bimatoprost were prepared in the minoxidil formulation (50% Propylene Glycol; 30% Ethyl Alcohol) at a concentration of 0.03% for both compounds. Both compounds were given topically to shaved backs of mice (as described in Khidhir et al. FASEB J. 2013 27(2):557-567).
More specifically, female C57BL/6J mice (cat. no. 000664; Jackson Laboratory, Bar Harbor, Me., USA), aged 7 weeks, were randomly distributed into 4 groups to avoid any sibling bias and housed in groups of 5 with standard diet food pellets and water available ad libitum. […] From the next day, termed d 0 (zero), each mouse was treated topically with either the vehicle alone (ethanol:propylene glycol:water 3:5:2) or 0.03, 0.10, or 0.30% bimatoprost in the vehicle for d 14; 10 mice were used for each condition. The appropriate solution (70 μl) was rubbed gently into the dorsal skin of each mouse daily; new gloves were worn for each treatment type. Hair growth was recorded daily for each animal for d 42, and dorsal photographs were taken at d 0, 7, 14, 17, 21, 24, 28, 31, 35, and 42. […] To calculate mean values, the first day of growth was designated as d 43 for any mouse showing no hair growth signs by the last day. The day when the shaved dorsal area was fully covered with new black hairs, i.e., there was no pink skin remaining and no visible difference in hair length to the adjacent unshaved areas, was also recorded. This assay has been successfully used to evaluate compounds that cause hair growth (see, e.g., Khidhir et al. FASB J. 2013, 27, 557-567; Plikus et al. J. Invest. Dermatol. 2008, 128, 1071-1080).

[2] = tested on: prostamide receptors on human pre-adipocytes; assay: xCelligence impedance assay on pre-adipocytes; type: cell-based; conditions: for EC50: 20 min, human pre-adipocytes, 7 concentrations (10^−5 to 10^−9 M), signal measured for 20 minutes; for potency relative to bimatoprost on human pre-adipocytes: comparison of the EC50 values of Table 1; for stimulation of prostamide receptors on human pre-adipocytes: xCelligence impedance assay
Method: In this example it is shown that the compounds of Formulas I and II stimulates pre-adipocytes. In general, the compounds of Formulas I and II and bimatoprost were tested in the xCelligence impedance assay.
More specifically, pre-adipocytes were purchased from Lonza. Cells were expanded in Pre-adipocyte maintenance medium (Lonza, Switzerland). Once expanded, 10,000 cells per well were plated into xCelligence 96-well plates and incubated at 37° C. for 72 hours until the impedance signal normalized. Once normalized, media was switched to serum-free pre-adipocyte media (PDM-2) for 2 hours at 37° C. Once the signal stabilized for 30 minutes, compounds were added at 7 concentrations (10^−5 to 10^−9 M) and the signal measured for 20 minutes. The change in impedance was normalized to the background reading (buffer alone) and the EC50 calculations were determined using prism software.

[3] = tested on: Human Hair Dermal Papilla Cells (HHDPCs); assay: in vitro impedance (cell dielectric spectroscopy, CellKey) assay with human dermal papilla cells; type: cell-based; conditions: 10^−5 to 10^−12 M, impedance measured over 20 minutes, three independent experiments
Method: In this example, the lack of activity of the compound according to Formulas I and II is shown. In general, bimatoprost or the compound of Formula I was incubated at concentrations from 10^−5 and 10^−12 M with human dermal papilla cells in an in vitro impedance assay. […] Three independent experiments were performed.
More specifically, Human Hair Dermal Papilla Cells (HHDPCs) were expanded in specific culture medium (Promo Cell). After growing, the cells were seeded on 96 well plates coated with poly-L-Lysine at 20,000 cells per well. Cells were incubated during 24 hours at 37° C., 5% CO2. The day of the experiment, the culture medium was eliminated and replaced by HBSS containing BSA, 0.1% v/v. The cells were incubated in the CellKey system, for 4 hours at 28° C. before using to test compounds. Bimatoprost, the compound of Formula I, and/or the compound of Formula II were tested at […] from 10^−5 to 10^−12 M. The change in impedance was measured over 20 minutes. The background was subtracted and the impedance signal was normalized to the reference (bimatoprost) for the compound of Formula I and the compound of Formula II. The data presented is in triplicate and of three independent experiments.

[4] = 5 mg/kg/day oral gavage daily for 6 months, p<0.05

Row | EC50 [2] | potency relative to bimatoprost on human pre-adipocytes [2] | stimulation of prostamide receptors on human pre-adipocytes [2] | SMILES | weight gain, female rats ([1]; 0.3 mg/kg/day oral gavage daily for 6 months, p<0.05) | weight gain, female rats [1, 4] | weight gain, male rats [1, 4] | reversibility of the weight effect after administration ceased ([1]; 4-week recovery phase after 5 mg/kg/day) | start of the decrease in body weight gain ([1]; daily oral administration, male and female rats, persisted up to 183 days) | start of hair re-growth (female C57BL/6J mice) | full hair re-growth (female C57BL/6J mice) | change in impedance (agonist response) on human dermal papilla cells [3]
1 | 10.7 nM | relatively more potent than bimatoprost | stimulate prostamide receptors | NC(=O)CCC/C=C\C[C@@H]1[C@@H](/C=C/[C@@H](O)CCc2cc(Cl)sc2Cl)[C@H](O)C[C@@H]1O [Formula I] | inhibited weight gain | inhibited weight gain | inhibited weight gain | somewhat reversible | 14 days | appears to boost the start to hair re-growth | does not result in full hair re-growth | did not produce any detectable effect; also recorded: do not show activity
2 | 11.7 nM | relatively more potent than bimatoprost | stimulate prostamide receptors | NC(=O)CCC/C=C\C[C@@H]1[C@@H](/C=C/[C@@H](O)CCc2cc(Br)sc2Br)[C@H](O)C[C@@H]1O [Formula II] |  |  |  |  |  |  |  | do not show activity
3 | 784 nM |  | stimulate prostamide receptors | CCNC(=O)CCC/C=C\C[C@@H]1[C@@H](/C=C/[C@@H](O)CCc2ccccc2)[C@H](O)C[C@@H]1O [Bimatoprost, bimatoprost, reference compound] |  |  |  |  |  | accelerates both time to start and full hair re-growth | accelerates both time to start and full hair re-growth | reduction in impedance; also recorded: shows activity
